Measured values from PubChem BioAssay AID330 (DTP/NCI, 2004).
Toxic doses and inconclusive results are not listed. Rule for the calls: active = survival T/C of 150% or more; inactive = T/C below 125% in these data.

Test system: P388 leukemia ip, CD2F1 mice, survival T/C
Assay: NCI In Vivo Anticancer Drug Screen. Data for tumor model P388 Leukemia (intraperitoneal) in CD2F1 (CDF1) mice
Details: endpoint: median survival time, higher = longer survival
Summary of the method: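 Mice carrying the transplanted tumor received test compound or vehicle. Survival was recorded in each group, and the value is the treated-group measurement divided by that of the vehicle-treated control group.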

Measured: T/C

OCC[N+]12CN3CN(CN(C3)C1)C2
inactive: dose: 25.0 mg/kg/injection, schedule: Q01DX009 (ip), vehicle: saline 108 % of control | dose: 50.0 mg/kg/injection, schedule: Q01DX009 (ip), vehicle: saline 110 % of control | dose: 100.0 mg/kg/injection, schedule: Q01DX009 (ip), vehicle: saline 111 % of control | dose: 178.0 mg/kg/injection, schedule: Q01DX009 (ip), vehicle: saline 118 % of control | dose: 200.0 mg/kg/injection, schedule: Q01DX009 (ip), vehicle: saline 118 % of control | dose: 266.0 mg/kg/injection, schedule: Q01DX009 (ip), vehicle: saline 118 % of control

COc1ccc2c(C)c(N=C=S)c(=O)oc2c1
inactive: dose: 50.0 mg/kg/injection, schedule: Q04DX003 (ip), vehicle: suspension in saline 100 % of control | dose: 100.0 mg/kg/injection, schedule: Q04DX003 (ip), vehicle: suspension in saline 100 % of control | dose: 200.0 mg/kg/injection, schedule: Q04DX003 (ip), vehicle: suspension in saline 106 % of control

CCCCN1COC2CCCCC21 (centres undefined)
inactive: dose: 25.0 mg/kg/injection, schedule: Q01DX005 (ip), vehicle: saline 113 % of control | dose: 100.0 mg/kg/injection, schedule: Q01DX005 (ip), vehicle: saline 121 % of control

COc1ccc(/C=N/N2CN(C(CC(N)=O)C(=O)O)P(Nc3ncccn3)N=C2N)cc1OC (centres undefined)
inactive: dose: 60.0 mg/kg/injection, schedule: Q01DX005 (ip), vehicle: saline with Tween-80 104 % of control | dose: 120.0 mg/kg/injection, schedule: Q01DX005 (ip), vehicle: saline with Tween-80 102 % of control | dose: 240.0 mg/kg/injection, schedule: Q01DX005 (ip), vehicle: saline with Tween-80 95 % of control
